How the values were obtained:
Angiogenin = Angiogenin (Homo sapiens, UniProt P03950); assay: Inhibition Kinetics with Angiogenin; details: pH 6
Method: The assay was carried out in oligovinylsulfonic acid free 0.1 M Mes-NaOH buffer (pH 6.0) containing 0.1 M NaCl using substrate concentration from 20 to 122 nM. The concentration of compounds 2, 3, 4 and 5 ranged from 0 to 0.8, 0 to 1.2, 0 to 1.2 and 0 to 2.5 mM, respectively. The angiogenin concentration was 0.36 µM.

[1] = biological target: Ribonuclease pancreatic (Bos taurus) (UniProt P61823)
Chain of Ribonuclease pancreatic (Bos taurus) (P61823 whole entry, looked up): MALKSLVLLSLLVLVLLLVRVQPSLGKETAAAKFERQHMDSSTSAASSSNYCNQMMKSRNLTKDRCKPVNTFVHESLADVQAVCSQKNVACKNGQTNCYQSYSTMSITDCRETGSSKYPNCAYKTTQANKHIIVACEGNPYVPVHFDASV

Chain of Angiogenin (P03950 whole entry): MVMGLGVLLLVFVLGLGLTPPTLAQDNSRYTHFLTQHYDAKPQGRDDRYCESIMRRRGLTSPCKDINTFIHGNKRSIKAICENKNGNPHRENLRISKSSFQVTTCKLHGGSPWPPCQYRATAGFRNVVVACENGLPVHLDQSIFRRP

SMILES	Ki (Angiogenin)	Ki [1]
Cc1cn([C@H]2C[C@@H](NC(=O)C(=O)O)[C@@H](CO)O2)c(=O)[nH]c1=O [N-[2-Hydroxymethyl-5-(5-methyl-2,4-dioxo-3,4-dihydro-2H-pyrimidin-1-yl)-tetrahydro-furan-3-yl]-oxalamic acid (Compound 5)]	775 µM	132 µM
Cc1cn([C@H]2C[C@@H](NC(=O)CC(=O)O)[C@@H](CO)O2)c(=O)[nH]c1=O [N-[2-Hydroxymethyl-5-(5-methyl-2,4-dioxo-3,4-dihydro-2H-pyrimidin-1-yl)-tetrahydro-furan-3-yl]-malonamic acid (Compound 6)]	1110 µM	380 µM
Cc1cn([C@H]2C[C@@H](NC(=O)C(N)CO)[C@@H](CO)O2)c(=O)[nH]c1=O (stereo partly drawn) [Ser-aT (Compound 2)]	427 µM	80 µM
Cc1cn([C@H]2C[C@@H](NC(=O)C(N)Cc3ccc(O)cc3)[C@@H](CO)O2)c(=O)[nH]c1=O (stereo partly drawn) [Tyr-aT (Compound 3)]	1250 µM	451 µM

Reference: BindingDB's records for doi:10.1016/j.bioorg.2013.11.005 (Sastra University, 2014)
